Structures are written as SMILES.

The source of these data is patent publication US6617337B1, “Use of nitroxides for the treatment of essential hypertension” (Georgetown University, priority 1997, dated 2003).

Format in all cases: in vivo, rat
One test deals with SHR. Briefly: Role of NO in the MAP response to constant Tempol infusion (L-NAME or norepinephrine pretreatment).
The subject of test [1] is SHR and WKY rats. Briefly: MAP during constant intravenous infusion of Tempol in anesthetized rats (dose-response). To be noted: Tempol 1,800 μmol·kg^−1·h^−1 i.v. infusion, 30 minutes.
The test system of test [2] is SHR and WKY rats. Briefly: Maximal TGF responses during retrograde microperfusion of Tempol into the macula densa/JGA (Series 6). To be noted: for Percentage reduction in TGF normalized to the initial response: Tempol 10^−3 M retrograde; for PSF difference 0-40 nl·min^−1 (maximal TGF response) / PSF during LH perfusion at 0 nl·min^−1 / PSF during LH perfusion at 40 nl·min^−1: retrograde perfusion, ATF+Tempol 10^−3 M, mean ± SEM. Here is the method:
Series 4. Effects of inhibition of bNOS on maximal TGF responses in SHR and WKY. These experiments further examined the SHR hypertension model and whether the enhanced TGF of the SHR kidney is due to a blunted generation of NO by bNOS in the macula densa or whether NOS inhibition is diminished in the SHR model. Groups of SHR and age-matched WKY rats were prepared for in vivo micropuncture, microperfusion, and TGF studies as described in detail previously. In brief, animals were anesthetized with thiobarbital (Inactin, 100 mg·kg^−1; Research Biochemicals, Inc., Natick, Mass.). A catheter was placed in a jugular vein for fluid infusion and in a femoral artery for recording of mean arterial pressure (MAP) from the electrically damped output of a pressure transducer (Statham, Inc.). A tracheotomy tube was inserted and the animals were allowed to breathe spontaneously. The left kidney was exposed by a flank incision, cleaned of connective tissue, and stabilized in a Lucite cup. This kidney was bathed in 0.154 M NaCl maintained at 37° C. After completion of surgery, rats were infused with a solution of 0.154 M NaCl and 1% albumin at 1.5 ml·h^−1 to maintain a euvolemic state. Micropuncture studies were begun after 60 min for stabilization.
For orthograde microperfusion of the loop of Henle (LH), a micropipette (8 μm OD) containing artificial tubular fluid (ATF) stained with FD&C dye was inserted into a late proximal tubule. Injections of the colored ATF identified the nephron and the direction of flow. An immobile bone wax block was inserted into this micropuncture site via a micropipette (10-15 μm) and connected to a hydraulic drive (Trent Wells, Inc., LaJolla, Calif.) to halt tubular fluid flow. A perfusion micropipette (6-8 μm) containing ATF and test compounds or vehicle was inserted into the proximal tubule downstream from the wax block and connected to a nanoliter perfusion pump (WPI, Sarasota, Fla.). A pressure micropipette (1-2 μm) was inserted into the proximal tubule upstream from the wax block to measure proximal stop flow pressure (PSF). Changes in PSF are an index of changes in glomerular capillary hydraulic pressure (PGC). Measurements of PSF were made in each nephron during zero loop perfusion and during perfusion with ATF at 40 nl·min^−1, which produces a maximal TGF response, defined as the difference between PSF values recorded during perfusion of the loop with ATF at 0 and 40 nl·min^−1.
Groups of SHR (n=5) and WKY rats (n=5) were prepared for studies of retrograde microperfusion into the macula densa. […] Therefore, these studies of TGF were conducted with retrograde microperfusion from the early distal (ED) tubule into the macula densa. After identifying the nephron with FD&C green, the last proximal convolution was vented and a wax block placed upstream. A micropipette (8-10 μm OD) was inserted into the ED tubule upstream from an oil droplet. The loop of Henle was perfused retrogradely with perfusate entering the macula densa segment directly at 0 and 20 nl·min^−1. This represents a maximal activation for TGF by retrograde perfusion. […] Therefore, this dose was used thereafter in the test animals (Dosage/kg would usually be lower in larger animals). Comparisons were made of maximum TGF responses obtained during perfusion of ATF+vehicle (ethanol) and ATF+Tempol.

For the molecule `CC1(C)CC(O)CC(C)(C)N1[O]` [Tempol, 4-hydroxy-2,2,6,6-tetramethyl-1-piperidinyloxy], the “Decrease in MAP” value was found to be 14% in the test on SHR (SHR infused with norepinephrine, Tempol infusion) and 32% with SHR (SHR, saline vehicle pretreatment, Tempol infusion for 30 minutes, P<0.05). The “MAP during Tempol infusion” value with SHR (SHR infused with norepinephrine, Tempol infusion, P<0.05) was 161±7 mm Hg; in the test on SHR (SHR pretreated with L-NAME, Tempol infusion 30 minutes, unchanged) it was 186±4 mm Hg. The MAP was 121±17 mm Hg with SHR (SHR, saline vehicle pretreatment, Tempol infusion 180 μmol·kg^−1·min^−1 (so in the source) for 30 minutes); 72±10 mm Hg with SHR and WKY rats [1] (SHR); 71±3 mm Hg with SHR and WKY rats [1] (WKY). For the same molecule, the “Percentage reduction in TGF normalized to the initial response” value in the test on SHR and WKY rats [2] (SHR) is reported as −26±2%; with SHR and WKY rats [2] (WKY), −17±3%. In addition, the “PSF difference 0-40 nl·min^−1 (maximal TGF response)” value in the test on SHR and WKY rats [2] (SHR) was determined as 8.5 ± 0.8 mm Hg; in the test on SHR and WKY rats [2] (WKY) it was 6.7 ± 0.4 mm Hg. The “PSF during LH perfusion at 0 nl·min^−1” value in the test with SHR and WKY rats [2] (SHR) came to 40.8 ± 0.8 mm Hg; in the test with SHR and WKY rats [2] (WKY), 34.7 ± 0.8 mm Hg. Moreover, the “PSF during LH perfusion at 40 nl·min^−1” value in the test on SHR and WKY rats [2] (SHR) is given as 32.1 ± 0.9 mm Hg; with SHR and WKY rats [2] (WKY), 28.0 ± 0.9 mm Hg. Also, the “Maximally effective dose (preliminary studies, effects reversible)” value with SHR and WKY rats [2] (retrograde microperfusion into the macula densa) is 10^−3 M.
